Measured values published in patent US20220211728A1, “ALKYL-TPP COMPOUNDS FOR MITOCHONDRIA TARGETING AND ANTI-CANCER TREATMENTS” (LUNELLA BIOTECH, INC., priority 2019, published 2022).
Entries after “also recorded” stand apart in the source; their conditions may differ. Where two headings read alike, the source gives them in different places.

Experiments:
[1] = system: MCF-7 breast cancer cells; assay: mammosphere formation assay (CSC propagation) in MCF-7 cells; type: cell-based, human; details: for IC50: Homo sapiens, MCF7
Method: (§1) The mammosphere assay was performed as follows. A single cell suspension of MCF-7 or MDA-MB-231 cells was prepared using enzymatic (1× Trypsin-EDTA, Sigma Aldrich), and manual disaggregation (25 gauge needle). Cells were then plated at a density of 500 cells/cm^2 in mammosphere medium (DMEM-F12/B27/20-ng/ml EGF/PenStrep) in nonadherent conditions, in culture dishes coated with (2-hydroxyethylmethacrylate) (poly-HEMA, Sigma Aldrich), in the presence of treatments, were required. Cells were grown for 5 days and maintained in a humidified incubator at 37° C. at an atmospheric pressure in 5% (v/v) carbon dioxide/air. After 5 days for culture, spheres >50 μm were counted using an eye piece graticule, and the percentage of cells plated which formed spheres was calculated and is referred to as percentage mammosphere formation. Mammosphere assays were performed in triplicate and repeated three times independently.

[2] = system: MCF-7 breast cancer cells; details: b-TPP, identified in International Application PCT/US2018/062174; read-out: IC-50 inhibiting CSC propagation; cited from earlier work
[3] = system: MDA-MB-231 triple negative breast cancer cells; assay: mammosphere formation assay (CSC propagation) in MDA-MB-231 cells; type: cell-based, human
Method: as §1

[4] = system: MCF-7 breast cancer cells; assay: cell viability by sulphorhodamine (SRB) assay in MCF-7 cells; type: cell-based; details: Homo sapiens, MCF7, 250 nM, 500 nM and 1 μM, read-out: reduction in cell viability
Method: (§2) Cell viability was assessed in MCF-7 and hTERT-BJ1 cells by sulphorhodamine (SRB) assay, based on the measurement of cellular protein content. After treatment with d-TPP (50 nM+1 μM) for 24, 48 or 72 hours, cells were fixed with 10% trichloroacetic acid (TCA) for 1 hour in cold room, and dried overnight at room temperature. Then, cells were incubated with SRB for 15 min, washed twice with 1% acetic acid, and air dried for at least 1 hour. Finally, the protein-bound dye was dissolved in 10 mM Tris pH 8.8 solution and read using a plate reader at 540 nm.

[5] = system: normal human fibroblasts (hTERT-BJ1); assay: cell viability by sulphorhodamine (SRB) assay in normal fibroblasts; type: cell-based
Method: as §2

MCF-7 cells [6] = assay: Seahorse XFe96 metabolic flux analysis, oxygen consumption rate (OCR); type: cell-based, human
Method: (§3) The extracellular acidification rate (ECAR) and real-time oxygen consumption rate (OCR) assays for metabolic flux analysis were performed using the Seahorse Extracellular Flux (XFe-96) analyzer (Seahorse Bioscience). Briefly, 15,000 MCF-7 cells per well were seeded into XFe-96 well cell culture plates, and incubated overnight to allow attachment. Cells were then treated with increasing concentrations of d-TPP (50 nM+500 nM) for 24 hours. Vehicle alone (DMSO) control cells were processed in parallel. Then, cells were washed in pre-warmed XF assay media (or for OCR measurement, XF assay media supplemented with 10 mM glucose, 1 mM Pyruvate, 2 mM L-glutamine and adjusted at 7.4 pH). Cells were then maintained in 175 μL/well of XF assay media at 37 C, in a non-CO2 incubator for 1 hour. During the incubation time, 5 μL of 80 mM glucose, 9 μM oligomycin, and 1 M 2-deoxyglucose (for ECAR measurement) or 10 μM oligomycin, 9 μM FCCP, 10 μM Rotenone, 10 μM antimycin A (for OCR measurement), were loaded in XF assay media into the injection ports in the XFe-96 sensor cartridge. Data set was analyzed by XFe-96 software after the measurements were normalized by protein content (SRB). All experiments were performed three times independently.

MCF-7 cells [7] = assay: Seahorse XFe96 metabolic flux analysis, extracellular acidification rate (ECAR); type: cell-based, human; details: MCF-7, d-TPP 50 nM to 500 nM
Method: as §3

adherent MCF-7 cells = assay: xCELLigence real-time cell analysis of cell proliferation; type: cell-based, human
Method: The xCELLigence system was used to analyze the kinetics of d-TPP action on cell proliferation of adherent MCF-7 cells. The xCELLigence system evaluates the real-time, label-free monitoring of cell health and behavior, by measuring the electrical impedance, whose magnitude is dependent on the number of cells. Real-time cell analysis was performed for 48-hour and 72-hour treatment with d-TPP, at concentrations of 50 nM, 100 nM, and 250 nM. The control was vehicle-only. The results for the 48-hour d-TPP treatment are shown in FIGS. 8A and 8B, and FIGS. 8C and 8D show results for the 72-hour d-TPP treatment.
The xCELLigence Real-time cell analysis (RTCA) System was sourced from ACEA Biosciences Inc. The xCELLigence RTCA system provides a useful approach for the real-time monitoring of the biological status of adherent cells, by measuring the electrical impedance, expressed as a cell index (CI) value. 5000 MCF-7 cells were seeded in a 16-well plate (E-plate). 24 hours after seeding, cells were treated with vehicle or increasing concentrations of d-TPP (from 50 nM to 250 nM) for additional 48 hours or 72 hours. RTCA was performed by measuring the cell-induced electrical impedance values, which were automatically recorded every 15 min for 96 h. This approach allows the quantification of the onset and kinetics of the cellular response. Experiments were repeated three times independently, using quadruplicate samples for each condition.

[8] = system: human breast tumors initiated from the MDA-MB-231 cell line; assay: CAM assay, tumor growth and metastasis; type: in vivo, chicken embryos
Method: (§4) Further evaluation of both efficacy and toxicity was performed on human breast tumors initiated from the MDA-MB-231 cell line in chicken embryos using the CAM Model available from Inovotion (La Tronche, France). […] With respect to the CAM assay, fertilized eggs were incubated at 37.5° C. with 50% relative humidity for 9 days. The graft was dropped into each egg through a small hole drilled through the eggshell into the air sac, and a 1 cm^2 window cut in the eggshell above the CAM. This grafting process was used for each egg in a test group. Because the grafting process is an invasive surgical act, some death is expected to occur during hours after the tumor graft. For the data reported herein, at least 10 eggs per test group were successfully grafted.
The MDA-MB-231 tumor cell line was cultivated in DMEM medium supplemented with 10% FBS and 1% penicillin/streptomycin. After the 9-day incubation period, cells were detached with trypsin, washed with complete medium, and suspended in a graft medium. An inoculum of 1.10^6 cells was added onto the CAM of each egg, and then eggs were randomized into test groups. Tumors were detectable within one day of the graft. The negative control group was a 0.125% DMSO in PBS, and d-TPP groups for concentrations of 6.25 μM, […], were evaluated. Each egg in a group was treated 8 times per day. After 8 days of treatments, tumor growth was quantitatively evaluated. The upper portion of the CAM (with the tumor) was removed, washed in a PBS buffer, and then directly transferred in PFA for a 48-hour fixation. Tumors were then carefully cut away from normal CAM tissue and weighed. For all quantitative data relating to the chicken egg evaluation, a one-way ANOVA (with post-tests between each couple of groups) was performed with the specialized computer software Prism® (GraphPad Software). For all analyses, statistical difference between groups is made visible on graphs by the presence of stars with the following meaning: no asterisk means p>0.05; * means […]; ** means 0.01≥p>0.001; and *** means 0.001≥p. […] Consistent with the evaluations described above, the d-TPP tumor growth inhibition effect was dose-dependent.
Metastatic invasion was also quantitatively evaluated. A 1 cm^2 portion of the lower CAM was collected to evaluate the number of metastatic cells in 8 samples per group (n=8). Genomic DNA was extracted from the CAM using a commercial kit, and analyzed by qPCR with specific primers for Human Alu sequences. Calculation of Cq for each sample, mean Cq and relative amounts of metastases for each group were directly managed by the Bio-Rad® CFX Maestro software. […]

chicken embryos = assay: CAM assay, embryonic tolerability; type: in vivo
Method: as §4
Embryonic tolerability of the d-TPP treatments were also quantitatively evaluated. Embryonic viability was checked daily following grating and during treatment. The number of dead embryos was also counted on the final day, to evaluate treatment-induced embryo toxicity. […] It should be appreciated by those having an ordinary level of skill in the art that toxicity should be analyzed for establishing a dosing regimen.

[9] = Berberine chloride 10 μM with d-TPP 100 nM

O=CC[C@@H](O)[C@H](O)[C@H](O)CO [2-DG, 2-deoxy-D-glucose]
increase in the inhibitory effect of d-TPP alone ([1]; 2-DG 10 mM with d-TPP 100 nM): 2 fold | residual mammosphere formation capability ([1]; 2-DG 20 mM with d-TPP 100 nM): < 10%

COc1ccc2cc3[n+](cc2c1OC)CCc1cc2c(cc1-3)OCO2 [Berberine chloride]
reduction (CSC formation) ([1]; Berberine chloride 1 μM with d-TPP 100 nM): 60% | increase in efficacy of d-TPP [1, 9]: ~5 fold | inhibition of CSC formation [1, 9]: over 80%

O=C(Nc1ccc([N+](=O)[O-])cc1Cl)c1cc(Cl)ccc1O [Niclosamide]
increase in efficacy of d-TPP on CSC activity ([1]; Niclosamide 250 nM with d-TPP 100 nM): ~2 fold | increase in efficacy of d-TPP on CSC activity ([1]; Niclosamide 500 nM with d-TPP 100 nM): ~3 fold

O=C1O[C@H]([C@@H](O)CO)C(O)=C1O [Vitamin C, Ascorbic Acid]
IC50 ([1]; Vitamin C separately (without d-TPP), read-out: IC-50 MCF-7 CSC propagation): 1000 µM | inhibition of propagation of CSCs ([1]; Vitamin C 250 μM in combination with d-TPP at 100 nM): over 50% | inhibition of propagation of CSCs ([1]; Vitamin C 500 μM in combination with d-TPP at 100 nM): over 70% | increase in CSC sensitivity to Vitamin C caused by d-TPP ([1]; d-TPP 100 nM): ~4 fold

C(=CC[P+](c1ccccc1)(c1ccccc1)c1ccccc1)C[P+](c1ccccc1)(c1ccccc1)c1ccccc1 [b-TPP, 2-butene-1,4-bis-TPP]
IC50 [2]: ~0.5 µM

CCCCCCCCCCC[P+](c1ccccc1)(c1ccccc1)c1ccccc1 [d-TPP, dodecyl-TPP]
IC50 ([1]; MCF-7, read-out: concentration necessary to half CSC activity): ~0.25 µM | potency in inhibiting mammosphere formation / CSC propagation compared with b-TPP (other TPP-derivatives) ([1]; MCF-7): twice as potent; also recorded: more than twice as potent | reduction in mammosphere formation ([1]; MCF-7, d-TPP 50 nM and 100 nM): 20% | reduction in CSC propagation (mammosphere formation) ([1]; MCF-7, d-TPP 500 nM and 1 μM): 80% | inhibition at 1 µM ([3]; Homo sapiens, MDA-MB-231, d-TPP 1 μM): ~80% | effect on CSC propagation (mammosphere formation) ([3]; MDA-MB-231, d-TPP 50 nM (lowest concentration tested)): showed an inhibitory effect | cytotoxicity at 0.25 µM ([4]; MCF-7, 24 hours): ~30% | cytotoxicity at 0.25 µM ([4]; MCF-7, 72 hours): ~80% | toxicity to hTERT-BJ1 cells ([5]; 50 nM and 100 nM): no toxicity | cell viability of hTERT-BJ1 cells ([5]; 250 nM, 500 nM and 1 μM): decreased | IC50 (MCF-7 cells [6]; Homo sapiens, MCF7, MCF-7, 24 hours treatment, read-out: IC-50 basal mitochondrial respiration): ~0.25 µM | oxygen consumption rate (OCR) (MCF-7 cells [6]; MCF-7, d-TPP 50 nM): dramatic reduction | ATP levels (MCF-7 cells [6]; MCF-7, d-TPP 50 nM to 500 nM): dose-dependently depleted | glycolysis (ECAR) (MCF-7 cells [7]): substantially and dose-dependently increased | effect on cell number (cell index) (adherent MCF-7 cells; MCF-7, 50 nM d-TPP, 72 h treatment): trend of reduced cell number | effect on cell proliferation (cell index) (adherent MCF-7 cells; MCF-7, 100 nM d-TPP): main cytostatic effect | cytotoxicity (cell index) (adherent MCF-7 cells; MCF-7, 250 nM d-TPP): Cytotoxicity was present | inhibition of metastasis ([8]; 25 μM concentration): ~75% | inhibition of tumor growth ([8]; 25 sM concentration): ~40% | tumor growth (tumor weight) compared to the negative control ([8]; medium (25.0 μM) and high (62.5 μM) doses): significantly inhibited | metastatic invasion (qPCR for Alu sequences in the lower CAM) compared to the negative control ([8]; medium dose): metastasis regression | embryo toxicity (chicken embryos; higher dose): resulted in mortality | embryo toxicity (chicken embryos; medium and low doses): did not exhibit toxicity
